# The source made the active and inactive calls.
# Tests used:
# [1] = Trypanosoma cruzi growth suppression in host cells – NIH3T3 host cells, beta-gal luminescence, confirmation (AID 2044); assay type: functional, cell-based;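 also: intracellular parasites grown in NIH/3T3 mouse fibroblasts as host cells; luminescent beta-galactosidase reporter signal from transgenic T. cruzi replicating inside host cells; inhibitors lower the luminescence signal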
# [2] = NIH3T3 cell viability loss – ATP luminescence, mouse fibroblasts, counter-screen, dose response (AID 2010); assay type: functional, cell-based;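 also: cells exposed to compound for about 90 hours before reading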
# [3] = test system: INS1; experiment: INS-1E survival protection against cytokine death – cell-based, luminescence, retest, dose response (AID 449756); assay type: functional; conditions: Rattus norvegicus;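 also: cell death triggered by IL-1 beta plus TNF-alpha plus IFN-gamma mixture; protective hits raise ATP signal compared with cytokine alone wells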
# [4] = target: Sphingosine 1-phosphate receptor 3 (Homo sapiens, UniProt Q99500); experiment: Dose response cell-based high throughput screening assay for antagonists of the Sphingosine 1-Phosphate Receptor 3 (S1P3). [Related pubchem assays: 1429, 485 ]; assay type: functional
# [5] = target: 5-hydroxytryptamine receptor 1E (Homo sapiens, UniProt P28566); experiment: Counterscreen assay for S1P3 antagonists: Dose response cell-based high throughput screening assay to identify antagonists of the 5-Hydroxytryptamine Receptor Subtype 1E (5HT1E). [Related pubchem assays: 1429, 485 ]; assay type: functional
# [6] = viability loss in HEK293 cells – cell-based, plate reader, cherry-picked samples, cytotoxicity control, dose response (AID 743446); assay type: functional
# [7] = Luminescence-based counterscreen assay for KLF5 inhibitors: dose response cell-based high throughput screening assay to identify cytotoxic compounds using the IEC-6 intestinal epithelial cell line. [Related pubchem assays: 1700 (Primary screen.), 1834 (Confirmation screen.), 1858 (Summary AID.), 1905 (Counterscreen.)]; assay type: functional
# [8] = blockade of melanocortin 4 receptor signaling – cell-based, plate reader, cherry pick, counter-screen for LGR2 antagonist project, dose response (AID 743444); assay type: functional;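 also: transfected HEK 293 cells stimulated with alpha-MSH peptide; potency of inhibitors of the alpha-MSH evoked signal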
# [9] = A549 cell cytotoxicity, dose response, cytotoxicity control, plate reader, cherry-pick, antagonist series (AID 743412); assay type: functional, cell-based
# [10] = blockers of bursicon-stimulated LGR2 cAMP reporter – cell-based, HEK293, CRE-luciferase reporter, cherry pick, set 2, dose response (AID 743343); assay type: functional;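 also: transfected cells were stimulated with diluted bursicon conditioned medium after compound addition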
# [11] = toxicity toward HepG2 liver cells – cell-based, plate reader, cherry-pick, antagonist series, cytotoxicity control, dose response (AID 743416); assay type: functional
# [12] = target: Bcl-2-like protein 10 (Homo sapiens, UniProt Q9HD36); experiment: Concentration-response of Bcl-B inhibitors by biochemical FP with TR3 (AID 1243); assay type: functional
# [13] = Luminescence Cell-Based Dose-Confimation HTS to Identify Inhibitors of 5'UTR Stem-Loop Driven Alpha-Synuclein mRNA Translation in H4 Neuroglioblastoma Cells. [Related pubchem assays: 1827 (Project Summary), 1813 (Primary HTS)]; assay type: functional
# [14] = target: T1, Neuropeptide Y receptor type 2 (Homo sapiens, UniProt P49146); experiment: IC50 for human NPY-Y2 blockade – cell-based, counter-screen for NPY-Y1 antagonist project, dose response (AID 1278); assay type: functional
# [15] = test system: HEK293; experiment: NOD2 signaling inhibitors in MDP-stimulated cells, cell-based, uHTS, luminescence (AID 2001); assay type: functional; conditions: Homo sapiens
# [16] = target: T2, Microphthalmia-associated transcription factor (Homo sapiens, UniProt O75030); experiment: reducers of TRPM1 reporter luminescence, concentration series – cell-based, SK-MEL-5, cherry-picked, set 3, MITF inhibitor project, dose response (AID 493073); assay type: functional;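 also: SK-MEL-5 melanoma cells with luciferase driven by the MITF target TRPM1 promoter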
# T2 sequence (O75030 whole entry): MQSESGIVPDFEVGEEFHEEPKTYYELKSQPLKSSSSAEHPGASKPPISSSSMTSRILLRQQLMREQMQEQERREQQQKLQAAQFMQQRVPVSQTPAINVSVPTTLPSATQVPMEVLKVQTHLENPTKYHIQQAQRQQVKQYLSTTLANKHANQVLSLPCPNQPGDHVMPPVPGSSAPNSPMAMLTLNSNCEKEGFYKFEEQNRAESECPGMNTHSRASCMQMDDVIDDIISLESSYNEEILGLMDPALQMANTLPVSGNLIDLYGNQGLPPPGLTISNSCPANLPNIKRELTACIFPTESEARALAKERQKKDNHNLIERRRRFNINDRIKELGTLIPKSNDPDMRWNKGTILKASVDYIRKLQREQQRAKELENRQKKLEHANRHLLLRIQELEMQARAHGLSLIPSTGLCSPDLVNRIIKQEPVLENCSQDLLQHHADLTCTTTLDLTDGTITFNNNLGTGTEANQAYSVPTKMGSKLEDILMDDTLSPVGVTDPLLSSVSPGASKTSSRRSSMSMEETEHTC
# [17] = test system: HEK293; experiment: inhibition of NOD1-driven NF-kB reporter – cell-based, luminescence, uHTS, primary screen (AID 1578); assay type: functional; conditions: Homo sapiens
# [18] = test system: HEK293; experiment: cells; assay type: functional, cell-based; conditions: Homo sapiens
# [19] = test system: HEK293; experiment: cells; assay type: functional, cell-based; conditions: Homo sapiens; remark: listed apart in the source
# [20] = target: T3, Neuropeptide Y receptor type 1 (Homo sapiens, UniProt P25929); experiment: IC50 of human NPY-Y1 blockers – cell-based, dose response (AID 1277); assay type: functional
# [21] = target: Sphingosine 1-phosphate receptor 2 (Homo sapiens, UniProt O95136); experiment: Dose Response Cell Based Assay for Agonists of the S1P2 Receptor of Purchased Analogues. [Related pubchem assays: 729, 843, 854, 736 ]; assay type: functional
# [22] = target: T4, Heat shock factor protein 1 (Mus musculus, UniProt P38532); experiment: decrease of HSF1-responsive luciferase luminescence – cell-based, NIH3T3, dose retest, confirmation (AID 2382); assay type: functional;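 also: NIH3T3 fibroblasts with HSF1-driven luciferase reporter stressed by proteasome inhibitor MG132; luminescence from HSF1-driven luciferase expression after 8 hours of MG132 stress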
# T4 sequence (P38532 whole entry): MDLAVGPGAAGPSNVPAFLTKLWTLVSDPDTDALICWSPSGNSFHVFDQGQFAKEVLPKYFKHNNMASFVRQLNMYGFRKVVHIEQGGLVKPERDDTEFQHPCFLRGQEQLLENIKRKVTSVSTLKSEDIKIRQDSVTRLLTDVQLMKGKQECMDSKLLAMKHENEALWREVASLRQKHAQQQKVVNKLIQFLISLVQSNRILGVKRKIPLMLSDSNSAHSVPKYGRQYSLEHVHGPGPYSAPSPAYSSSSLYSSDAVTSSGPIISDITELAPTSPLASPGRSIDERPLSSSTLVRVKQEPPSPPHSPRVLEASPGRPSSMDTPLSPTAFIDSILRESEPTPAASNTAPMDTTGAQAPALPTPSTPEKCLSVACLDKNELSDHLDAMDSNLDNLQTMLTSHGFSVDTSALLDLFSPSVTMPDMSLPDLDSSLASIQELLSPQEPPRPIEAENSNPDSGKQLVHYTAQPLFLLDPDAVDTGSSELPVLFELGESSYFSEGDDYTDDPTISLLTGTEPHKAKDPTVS
# [23] = target: T5, Carboxy-terminal domain RNA polymerase II polypeptide A small phosphatase 1 (Homo sapiens, UniProt Q9GZU7); experiment: CTDSP1 inhibitors, concentration-response, biochemical, absorbance readout, ultra-high-throughput screen actives (AID 540297); assay type: functional
# T5 sequence (Q9GZU7 whole entry): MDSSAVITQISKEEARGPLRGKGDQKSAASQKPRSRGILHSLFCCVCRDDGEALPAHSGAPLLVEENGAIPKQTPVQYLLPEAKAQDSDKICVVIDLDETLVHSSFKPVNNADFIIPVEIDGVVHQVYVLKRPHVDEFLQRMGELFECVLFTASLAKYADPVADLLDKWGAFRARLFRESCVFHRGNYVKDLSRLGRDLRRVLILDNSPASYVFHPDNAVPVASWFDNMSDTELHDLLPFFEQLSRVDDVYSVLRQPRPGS
# [24] = target: T6, Voltage-gated N-type calcium channel alpha-1B subunit/Amyloid beta A4 precursor protein-binding family A member 1 (Homo sapiens, UniProt Q00975+Q02410); assay type: protein assay
# [25] = target: T6, Voltage-gated N-type calcium channel alpha-1B subunit/Amyloid beta A4 precursor protein-binding family A member 1; assay type: protein assay; remark: listed apart in the source
# [26] = target: 72 kDa type IV collagenase (Homo sapiens, UniProt P08253); experiment: Dose Response validation of uHTS RPN11 inhibitor hits using a MMP-2 Fluorescence assay.; assay type: functional
# [27] = target: Prothrombin (Bos taurus, UniProt P00735); experiment: thrombin protease inhibitors – biochemical, fluorescence polarization, uHTS hits, dose response (AID 602369); assay type: functional
# [28] = A High Throughput Confirmatory Assay used to Identify Novel Compounds that Inhibit Mycobacterium Tuberculosis in the absence of Glycerol.; assay type: functional
# [29] = target: 26S proteasome non-ATPase regulatory subunit 14 (Homo sapiens, UniProt O00487); experiment: inhibition of proteasome subunit RPN11 – biochemical, fluorescence polarization, uHTS hits, confirmation (AID 602368); assay type: functional
# [30] = target: T1, Neuropeptide Y receptor type 2; assay type: functional, cell-based
# [31] = target: T3, Neuropeptide Y receptor type 1; assay type: functional
# [32] = target: T7, Estrogen receptor beta (Homo sapiens, UniProt Q92731); experiment: blockers of SRC-3 recruitment to ERβ – biochemical, ELISA, streptavidin-HRP readout, orthogonal assay, confirmation (AID 1060)
# [33] = target: T7, Estrogen receptor beta
# [34] = cells; assay type: functional, cell-based
# [35] = luciferase reporter signal suppression in cells – H4 neuroglioma cells, luminescence, dose response (AID 1990); assay type: functional, cell-based
# [36] = mitochondrial function rescue without frataxin homolog – Friedreich's ataxia, plus single-dose screen, dose response (AID 1465); assay type: functional;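 also: yeast depleted of Yfh1p frataxin homolog grown on glycerol needing respiration; WST-1 tetrazolium dye reduction as measure of cellular dehydrogenase metabolic activity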
# [37] = Luminescence Cell-Based Dose Response HTS to Identify Inhibitors of 5'UTR Stem-Loop Driven Prion Protein mRNA Translation in H4 Neuroglioblastoma Cells. [Related pubchem assays: 1827 (Project Summary), 1813 (Primary HTS)]; assay type: functional
# [38] = viability loss of HPDE-C7K cells – cell-based, fluorescence, HTS, primary screen (AID 431); assay type: functional; conditions: Homo sapiens
# [39] = alpha-synuclein stem-loop luciferase translation blockers – H4 neuroglioma cells, luminescence, confirmation (AID 1988); assay type: functional, cell-based
# [40] = target: Nonstructural protein 1 (Influenza A virus, UniProt Q194T2); assay type: functional, Influenza A virus (A/California/07/2009(H1N1))
# [41] = target: Scavenger receptor class B member 1 (Mus musculus, UniProt Q61009); experiment: mouse SR-BI DiI-HDL uptake blockers – ldlA[mSR-BI] cells, fluorescence, cherry pick, dose response (AID 493194); assay type: functional, cell-based;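 also: cellular uptake of fluorescent DiI-labeled HDL measured as cell fluorescence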
# [42] = HPDE-C7 pancreatic duct cell viability loss – fluorescence, HTS (AID 430); assay type: functional, cell-based; conditions: Homo sapiens
# [43] = bead-based luminescence quenchers, dual-tagged ARNT – biochemical, AlphaScreen, cherry-pick, artefact control for ARNT-TACC3 interaction inhibitor project, dose response (AID 651705); assay type: functional;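 also: AlphaScreen bead proximity signal that flags compounds interfering with the detection technology; potency reflects signal decrease which marks the compound as an assay artifact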
# [44] = cells; assay type: functional, cell-based; remark: listed apart in the source
# [45] = test system: Vero; experiment: Vero cell viability after compound exposure – synthesized analogs, set II, cytotoxicity control for West Nile virus antiviral project, SAR follow-up (AID 2402); assay type: functional; conditions: Chlorocebus sabaeus
# [46] = A Cell Based Assay for the Identification of Probe candidate Compounds with Anti- Venezuelan Equine Encephalitis virus. [Related pubchem assays: 2409, 2419, 1621, 2238, 2405, 2024, 2065, 2402, 2414, 1635, 1650, 2244 ]; assay type: functional
# T1 sequence (P49146 whole entry): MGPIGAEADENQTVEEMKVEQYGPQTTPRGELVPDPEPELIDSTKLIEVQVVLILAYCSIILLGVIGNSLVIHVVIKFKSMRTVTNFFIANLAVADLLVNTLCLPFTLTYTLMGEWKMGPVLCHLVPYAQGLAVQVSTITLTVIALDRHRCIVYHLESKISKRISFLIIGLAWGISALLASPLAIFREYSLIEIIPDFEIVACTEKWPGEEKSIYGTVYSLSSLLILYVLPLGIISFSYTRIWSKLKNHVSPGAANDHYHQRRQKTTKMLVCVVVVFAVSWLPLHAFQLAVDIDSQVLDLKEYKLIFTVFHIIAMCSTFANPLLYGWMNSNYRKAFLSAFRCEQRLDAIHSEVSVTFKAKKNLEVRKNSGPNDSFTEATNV
# T6 sequence (Q00975 whole entry): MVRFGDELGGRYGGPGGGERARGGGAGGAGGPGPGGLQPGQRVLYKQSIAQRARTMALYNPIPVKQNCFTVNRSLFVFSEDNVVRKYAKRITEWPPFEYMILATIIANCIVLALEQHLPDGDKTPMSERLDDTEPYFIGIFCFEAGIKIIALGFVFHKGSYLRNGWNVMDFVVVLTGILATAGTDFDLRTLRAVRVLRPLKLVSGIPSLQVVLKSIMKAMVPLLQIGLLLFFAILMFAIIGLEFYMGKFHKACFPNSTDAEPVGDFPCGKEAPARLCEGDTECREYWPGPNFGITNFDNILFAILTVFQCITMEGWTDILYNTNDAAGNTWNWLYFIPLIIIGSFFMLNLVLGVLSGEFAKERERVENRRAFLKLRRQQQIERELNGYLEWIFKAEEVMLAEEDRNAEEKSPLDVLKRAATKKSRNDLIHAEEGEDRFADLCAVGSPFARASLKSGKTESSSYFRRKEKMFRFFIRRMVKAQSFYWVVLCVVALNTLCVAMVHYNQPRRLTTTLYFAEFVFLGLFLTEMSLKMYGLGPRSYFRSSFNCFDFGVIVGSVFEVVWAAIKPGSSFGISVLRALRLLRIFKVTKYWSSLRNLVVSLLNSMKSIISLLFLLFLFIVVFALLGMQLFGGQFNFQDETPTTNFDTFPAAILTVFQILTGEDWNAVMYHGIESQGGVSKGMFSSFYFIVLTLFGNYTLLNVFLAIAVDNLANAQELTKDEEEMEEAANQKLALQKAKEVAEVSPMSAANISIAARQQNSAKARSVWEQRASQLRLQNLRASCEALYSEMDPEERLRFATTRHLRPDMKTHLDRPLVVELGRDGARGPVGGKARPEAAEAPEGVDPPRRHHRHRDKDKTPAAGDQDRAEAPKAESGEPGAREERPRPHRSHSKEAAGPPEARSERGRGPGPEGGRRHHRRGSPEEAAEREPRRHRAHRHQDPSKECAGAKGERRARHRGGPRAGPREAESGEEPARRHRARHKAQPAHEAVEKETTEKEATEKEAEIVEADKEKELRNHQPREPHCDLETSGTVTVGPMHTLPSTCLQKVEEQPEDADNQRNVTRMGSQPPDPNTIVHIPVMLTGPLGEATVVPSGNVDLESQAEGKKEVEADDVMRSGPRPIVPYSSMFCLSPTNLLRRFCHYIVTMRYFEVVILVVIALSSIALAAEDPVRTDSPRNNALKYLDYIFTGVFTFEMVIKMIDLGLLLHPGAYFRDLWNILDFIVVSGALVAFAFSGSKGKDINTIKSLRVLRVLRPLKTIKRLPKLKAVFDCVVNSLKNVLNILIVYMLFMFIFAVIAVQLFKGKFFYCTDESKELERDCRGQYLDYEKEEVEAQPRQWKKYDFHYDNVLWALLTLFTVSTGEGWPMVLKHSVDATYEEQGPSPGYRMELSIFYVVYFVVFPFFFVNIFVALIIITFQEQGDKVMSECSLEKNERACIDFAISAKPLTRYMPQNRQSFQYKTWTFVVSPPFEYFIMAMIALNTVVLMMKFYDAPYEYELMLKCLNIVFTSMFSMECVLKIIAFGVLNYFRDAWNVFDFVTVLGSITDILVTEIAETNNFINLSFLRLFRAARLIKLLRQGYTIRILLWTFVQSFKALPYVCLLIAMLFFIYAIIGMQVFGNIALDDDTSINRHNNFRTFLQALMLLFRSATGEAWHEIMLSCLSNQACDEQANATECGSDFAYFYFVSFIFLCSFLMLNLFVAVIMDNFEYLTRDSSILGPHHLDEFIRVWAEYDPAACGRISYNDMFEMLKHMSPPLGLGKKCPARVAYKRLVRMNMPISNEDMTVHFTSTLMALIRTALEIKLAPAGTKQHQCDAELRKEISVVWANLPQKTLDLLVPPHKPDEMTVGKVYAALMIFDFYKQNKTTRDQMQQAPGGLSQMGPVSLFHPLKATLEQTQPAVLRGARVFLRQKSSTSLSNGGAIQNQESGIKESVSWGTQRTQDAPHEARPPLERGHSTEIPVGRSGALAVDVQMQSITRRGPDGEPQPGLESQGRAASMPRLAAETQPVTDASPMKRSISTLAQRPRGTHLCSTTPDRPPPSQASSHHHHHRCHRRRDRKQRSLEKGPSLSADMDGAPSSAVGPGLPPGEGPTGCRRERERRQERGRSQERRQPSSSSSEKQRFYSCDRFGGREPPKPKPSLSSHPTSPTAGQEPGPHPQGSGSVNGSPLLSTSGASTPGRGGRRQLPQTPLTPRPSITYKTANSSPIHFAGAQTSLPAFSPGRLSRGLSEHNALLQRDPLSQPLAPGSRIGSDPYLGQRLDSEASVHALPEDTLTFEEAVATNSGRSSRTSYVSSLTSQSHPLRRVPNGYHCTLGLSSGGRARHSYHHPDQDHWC
# T6 sequence (Q02410 whole entry): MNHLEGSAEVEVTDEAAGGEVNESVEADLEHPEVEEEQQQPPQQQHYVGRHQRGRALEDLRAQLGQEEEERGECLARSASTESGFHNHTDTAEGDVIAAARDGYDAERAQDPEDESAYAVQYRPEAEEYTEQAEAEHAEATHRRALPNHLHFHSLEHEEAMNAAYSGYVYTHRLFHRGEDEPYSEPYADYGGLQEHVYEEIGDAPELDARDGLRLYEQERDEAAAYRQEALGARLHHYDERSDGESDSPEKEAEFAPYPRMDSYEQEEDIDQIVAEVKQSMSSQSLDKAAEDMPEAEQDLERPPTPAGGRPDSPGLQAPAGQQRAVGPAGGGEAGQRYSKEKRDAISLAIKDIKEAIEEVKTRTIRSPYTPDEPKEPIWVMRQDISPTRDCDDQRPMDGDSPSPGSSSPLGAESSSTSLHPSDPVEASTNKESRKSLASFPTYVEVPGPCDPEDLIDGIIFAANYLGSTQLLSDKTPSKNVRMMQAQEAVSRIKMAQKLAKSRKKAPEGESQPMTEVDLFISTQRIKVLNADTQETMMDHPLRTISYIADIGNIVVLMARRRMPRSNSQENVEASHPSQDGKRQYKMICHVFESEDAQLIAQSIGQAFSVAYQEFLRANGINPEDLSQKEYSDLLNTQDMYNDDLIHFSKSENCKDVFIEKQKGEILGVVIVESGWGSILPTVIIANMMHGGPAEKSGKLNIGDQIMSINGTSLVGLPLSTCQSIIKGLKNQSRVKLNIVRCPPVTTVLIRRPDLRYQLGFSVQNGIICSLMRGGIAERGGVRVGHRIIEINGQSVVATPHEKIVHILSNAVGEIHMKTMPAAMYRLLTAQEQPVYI
# T7 sequence (Q92731 whole entry): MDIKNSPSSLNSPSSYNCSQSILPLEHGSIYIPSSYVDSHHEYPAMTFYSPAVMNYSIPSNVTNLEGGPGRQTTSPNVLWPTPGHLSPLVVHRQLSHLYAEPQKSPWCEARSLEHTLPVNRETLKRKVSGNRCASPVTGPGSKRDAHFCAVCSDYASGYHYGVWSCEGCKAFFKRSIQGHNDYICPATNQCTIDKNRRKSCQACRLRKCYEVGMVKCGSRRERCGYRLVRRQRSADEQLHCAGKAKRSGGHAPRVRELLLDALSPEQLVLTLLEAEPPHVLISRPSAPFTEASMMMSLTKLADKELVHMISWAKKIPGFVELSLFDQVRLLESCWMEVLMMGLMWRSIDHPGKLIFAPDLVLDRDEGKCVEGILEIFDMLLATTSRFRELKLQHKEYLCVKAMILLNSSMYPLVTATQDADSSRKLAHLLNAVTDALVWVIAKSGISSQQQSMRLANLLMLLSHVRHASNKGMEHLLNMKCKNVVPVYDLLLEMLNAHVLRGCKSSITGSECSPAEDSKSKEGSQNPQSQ
# T3 sequence (P25929 whole entry): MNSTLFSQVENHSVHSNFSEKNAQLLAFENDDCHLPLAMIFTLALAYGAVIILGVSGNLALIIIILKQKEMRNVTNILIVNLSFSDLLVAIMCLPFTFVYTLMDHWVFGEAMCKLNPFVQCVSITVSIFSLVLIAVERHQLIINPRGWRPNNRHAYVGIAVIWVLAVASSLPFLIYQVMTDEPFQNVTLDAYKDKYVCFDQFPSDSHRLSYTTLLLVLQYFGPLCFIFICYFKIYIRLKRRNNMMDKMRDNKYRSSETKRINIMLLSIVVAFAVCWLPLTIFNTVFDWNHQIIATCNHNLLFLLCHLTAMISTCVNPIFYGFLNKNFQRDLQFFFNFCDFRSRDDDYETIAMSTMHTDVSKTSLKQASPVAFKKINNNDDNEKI
# Chain of Scavenger receptor class B member 1 (Q61009 whole entry): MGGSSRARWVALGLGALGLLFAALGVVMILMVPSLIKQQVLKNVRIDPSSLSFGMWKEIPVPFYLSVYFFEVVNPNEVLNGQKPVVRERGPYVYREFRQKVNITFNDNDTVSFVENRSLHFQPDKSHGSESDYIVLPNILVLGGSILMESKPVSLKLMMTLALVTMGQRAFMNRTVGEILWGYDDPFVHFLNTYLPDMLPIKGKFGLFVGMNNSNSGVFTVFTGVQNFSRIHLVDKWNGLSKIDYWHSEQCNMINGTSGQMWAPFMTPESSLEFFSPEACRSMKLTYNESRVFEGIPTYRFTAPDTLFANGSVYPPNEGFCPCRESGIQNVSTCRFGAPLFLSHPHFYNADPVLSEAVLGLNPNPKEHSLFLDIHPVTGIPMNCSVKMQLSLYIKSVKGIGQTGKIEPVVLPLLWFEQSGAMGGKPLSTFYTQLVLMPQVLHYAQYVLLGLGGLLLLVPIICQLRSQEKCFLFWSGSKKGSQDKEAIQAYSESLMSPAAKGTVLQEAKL
compound,measurement,setting,value
O=C(Nc1ccc(OC(F)F)c(Cl)c1)C(c1ccccc1)c1ccccc1,EC50,[1],1.29 µM (active)
same,EC50,[2],> 60 µM (inconclusive)
same,AC50,[3],8.95 µM (active)
same,IC50,[4],4.07 µM (active)
same,IC50,[5],1.25 µM (active)
Cc1ccc(C(=O)Nc2nc3ccccc3[nH]2)cc1,AC50,[6],29.2 µM (active)
same,IC50,[7],> 13.3 µM (not active)
same,AC50,[8],1.45 µM (active)
same,AC50,[9],35.2 µM (active)
same,AC50,[10],1.29 µM (active)
same,AC50,[11],> 52 µM (inactive)
Cc1c(Cl)ccc2c1NC(C(=O)O)C1CC=CC21 (centres undefined),EC50,[12],5.21 µM (active)
CC(C)c1ccc(-n2nnnc2SCc2nc(N)nc(N)n2)cc1,EC50,[13],> 100 µM (not active)
CC1CC(C)CN(C2=CC(=[N+]3CCCC3)CC(C)(C)C2)C1 (centres undefined),EC50,[1],0.159 µM (active)
same,IC50,[14],> 35 µM (not active)
same,IC50,[15],12.3 µM (inactive)
same,EC50,[2],> 60 µM (not active)
same,AC50,[16],2.24 µM (active)
same,EC50,[17],2.22 µM (active)
same,IC50,[18],7.24 µM (active)
same,IC50,[19],> 20 µM (inactive)
same,IC50,[20],15.1 µM (not active)
Cc1cc(C(=O)COC(=O)CCS(=O)(=O)c2ccccc2)c(C)n1Cc1ccccc1,EC50,[21],> 30 µM (not active)
CC(=O)Oc1ccc(/C=N\NC(=O)c2cc3c(ccc4ccccc43)o2)cc1,EC50,[22],> 195 µM (not active)
same,IC50,[23],4.3 µM (active)
same,IC50,[24],> 50 µM (inactive)
same,IC50,[25],4.06 µM (active)
same,IC50,[26],30 µM (active)
same,IC50,[27],75.6 µM (active)
same,IC50,[28],> 100 µM (active)
same,IC50,[29],10.9 µM (active)
CCOc1ccc(Oc2c(/C=N/NC(C)=O)c(C)nn2-c2ccccc2)cc1,IC50,[30],4.53 µM (active)
same,IC50,[31],8.9 µM (active)
CN1C(=O)CC(C(=O)O)S/C1=N/c1cc(Cl)c(O)c(Cl)c1 (centres undefined),IC50,[32],> 109 µM (not active)
same,IC50,[33],26.9 µM (active)
O=C(Nc1nc(NC(=O)c2ccco2)n(-c2ccccc2)n1)c1ccccc1,EC50,[34],> 350 µM (not active)
same,EC50,[35],10 µM (active)
same,EC50,[36],> 100 µM (active)
same,EC50,[37],5.2 µM (active)
same,EC50,[38],6.1 µM (active)
same,EC50,[39],7.85 µM (active)
same,IC50,[40],85.9 µM (active)
same,AC50,[3],2.96 µM (active)
same,AC50,[41],13.4 µM (active)
same,EC50,[42],3.73 µM (active)
same,AC50,[43],127 µM (active)
same,EC50,[44],> 350 µM (not active)
COc1ccc(Cn2nc(C)cc2OC(=O)c2c(F)cccc2F)cc1,CC50,[45],> 200 µM (active)
same,IC50,[46],> 133 µM (active)
